Assay results: the NIST ThermoML archive (doi:10.1016/j.jct.2015.06.025)

Tests used:
[1] = mn = molality of the nth substance listed, in mol/kg; conditions: 101.3 kPa, Liquid; for viscosity: Capillary tube (Ostwald / Ubbelohde) method; for mass density: Pycnometric method
[2] = 101.3 kPa, Liquid, Capillary tube (Ostwald / Ubbelohde) method

O=C[C@H](O)[C@@H](O)[C@H](O)[C@H](O)CO [D-glucose] + O
[1], m1 = 0.06
Conditions	mass density [kg/m3]	viscosity [mPa·s]
288.15 K	1003.25	1.174
298.15 K	1001.17	0.9111
308.15 K	998.15	0.7299

[Cl-].[Na+] [sodium chloride] + O
[1], m1 = 0.06
Conditions	mass density [kg/m3]	viscosity [mPa·s]
288.15 K	1001.64	1.146
298.15 K	999.52	0.896
308.15 K	–	0.7233

CCCC(CCC)C(=O)[O-].[Na+] [sodium valproate] + O
[1]
Conditions	mass density, 288.15 K [kg/m3]	mass density, 298.15 K [kg/m3]	mass density, 308.15 K [kg/m3]	viscosity, 288.15 K [mPa·s]	viscosity, 298.15 K [mPa·s]	viscosity, 308.15 K [mPa·s]
m1 = 0.01	–	997.43	994.42	–	0.8988	0.7252
m1 = 0.0102	999.51	–	–	1.153	–	–
m1 = 0.0191	999.84	997.79	–	1.162	0.9064	–
m1 = 0.02	–	–	994.78	–	–	0.7296
m1 = 0.0245	1000.06	997.98	–	1.169	0.9122	–
m1 = 0.0303	–	–	995.13	–	–	0.7345
m1 = 0.0305	1000.3	998.22	–	1.177	0.9166	–
m1 = 0.0401	1000.66	998.56	–	1.187	0.9238	–
m1 = 0.0405	–	–	995.53	–	–	0.7397
m1 = 0.0453	1000.87	998.75	–	1.195	0.9268	–
m1 = 0.0497	–	–	995.89	–	–	0.7444
m1 = 0.0501	1001.04	998.91	–	1.201	0.9318	–
m1 = 0.0605	–	–	996.24	–	–	0.7499
m1 = 0.0608	1001.43	999.3	–	1.213	0.9391	–
m1 = 0.0706	1001.79	999.64	–	1.225	0.9476	–
m1 = 0.0708	–	–	996.63	–	–	0.7552
m1 = 0.08	1002.15	999.96	–	1.238	0.9558	–
m1 = 0.0844	–	–	997.07	–	–	0.7617
m1 = 0.0902	–	–	997.29	–	–	0.7645
m1 = 0.0924	1002.59	1000.39	–	1.252	0.9653	–
m1 = 0.0959	–	–	997.48	–	–	0.7686
m1 = 0.101	–	–	997.66	–	–	0.7716
m1 = 0.1021	1002.93	1000.72	–	1.262	0.9733	–
m1 = 0.1154	–	–	998.16	–	–	0.7769

O [water]
[2]
Conditions	viscosity [mPa·s]
288.15 K	1.138
298.15 K	0.8903
308.15 K	0.7195

O [water] + CCCC(CCC)C(=O)[O-].[Na+]
[1], m2 = 0
Conditions	viscosity [mPa·s]
288.15 K	1.138
298.15 K	0.8903
308.15 K	0.7195
